Target: NQO1 (Homo sapiens, UniProt P15559)
Assay: In vitro NQO1 enzyme activity assay (cytochrome C reduction, absorbance at 550 nm)
Assay type: biochemical
Details: Table 1; NQO1 2 ng, Compound 5 μM; control 196
Protocol: In order to evaluate the activity of synthesized compound in NQO1, the experiments were conducted as follows:
The synthesized compound was dissolved in DMSO to make a 10 mM stock solution, which was further diluted with DMSO to 250 μM so as to prepare a working solution. For experimental groups, the working solution of the compound was added to an enzyme reaction solution in which 50 μL of 1.54 mM Cytochrome C solution was added to 900 μL of 50 mM Tris-HCl (pH7.5) containing 0.14% BSA. For negative control groups, DMSO not containing the compound of the invention was added to the enzyme reaction solution as above. For each experimental and control group, 20 μL of 100 ng/mL NQO1 protein was added. Next, 10 μL of 20 mM NADH was added to bring up the volume to 1 mL. The change of absorbance was measured at 550 nm for 10 minutes using 1 mL cuvette. The kinetics of reaction was measured with the increase of absorbance as the cytochrome C was reduced at 550 nm over 10 minutes. The activity of NQO1 was measured by the amount of cytochrome C that is being reduced (nmol cytochrome C that was reduced/min/ug NQO1 protein).
Absorption coefficient of Cytochrome C: 21.1 (μmol/mL)^−1 cm^−1
Equipment=Cary 100 UV-Vis Spectrophotometer

NQO1, sequence (P15559 whole entry, species assumed): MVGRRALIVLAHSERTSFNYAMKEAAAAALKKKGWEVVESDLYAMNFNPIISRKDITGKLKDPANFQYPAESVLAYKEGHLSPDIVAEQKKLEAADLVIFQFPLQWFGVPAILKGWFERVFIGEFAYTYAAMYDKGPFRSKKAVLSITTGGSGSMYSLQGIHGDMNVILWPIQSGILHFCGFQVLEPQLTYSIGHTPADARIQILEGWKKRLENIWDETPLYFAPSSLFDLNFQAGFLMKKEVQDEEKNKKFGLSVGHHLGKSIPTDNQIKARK

Structure (SMILES) | NQO1 activity (nmol of reduced Cytochrome C/min/μg NQO1 protein)
Cn1c(=O)c2c(n1-c1ccccc1)-c1ccccc1C(=O)C2=O [Compound 5, 2-methyl-1-phenyl-1H-benzo[g]indazol-3,4,5(2H)-trione] | 2602 nmol of reduced Cytochrome C/min/μg NQO1 protein
COc1nn(-c2ccccc2)c2c1C(=O)C(=O)c1ccccc1-2 [Compound 6, 3-methoxy-1-phenyl-1H-benzo[g]indazol-4,5-dione] | 7706 nmol of reduced Cytochrome C/min/μg NQO1 protein
O=C1C(=O)c2c(n(-c3ccccc3)[nH]c2=O)-c2ccccc21 [Compound 1, 1-phenyl-1H-benzo[g]indazol-3,4,5(2H)-trione] | 180 nmol of reduced Cytochrome C/min/μg NQO1 protein
CC(C)n1c(=O)c2c(n1C)-c1ccccc1C(=O)C2=O [Compound 3, 2-isopropyl-1-methyl-1H-benzo[g]indazol-3,4,5(2H)-trione] | 3066 nmol of reduced Cytochrome C/min/μg NQO1 protein

Same assay, conditions: Table 2; NQO1 2 ng, Compound 0.2 μM; control 96

Structure (SMILES) | NQO1 activity (nmol of reduced Cytochrome C/min/μg NQO1 protein)
COc1nn(-c2ccc(F)cc2)c2c1C(=O)C(=O)c1ccccc1-2 [Compound 19, 1-(4-fluorophenyl)-3-methoxy-1H-benzo[g]indazol-4,5-dione] | 4303 nmol of reduced Cytochrome C/min/μg NQO1 protein
COc1nn(-c2ccc(C(F)(F)F)cc2)c2c1C(=O)C(=O)c1ccccc1-2 [Compound 18, 3-methoxy-1-(4-(trifluoromethyl)phenyl)-1H-benzo[g]indazol-4,5-dione] | 4232 nmol of reduced Cytochrome C/min/μg NQO1 protein
CC(C)Oc1nn(-c2ccccc2)c2c1C(=O)C(=O)c1ccccc1-2 [Compound 2, 3-isopropoxy-1-phenyl-1H-benzo[g]indazol-4,5-dione] | 3531 nmol of reduced Cytochrome C/min/μg NQO1 protein
CC(C)Cn1c(=O)c2c(n1-c1ccccc1)-c1ccccc1C(=O)C2=O [Compound 9, 2-isobutyl-1-phenyl-1H-benzo[g]indazol-3,4,5(2H)-trione] | 2474 nmol of reduced Cytochrome C/min/μg NQO1 protein
CC(C)n1c2c(c(=O)n1C)C(=O)C(=O)c1ccccc1-2 [Compound 16, 1-isopropyl-2-methyl-1H-benzo[g]indazol-3,4,5(2H)-trione] | 4441 nmol of reduced Cytochrome C/min/μg NQO1 protein
CCOc1nn(-c2ccccc2)c2c1C(=O)C(=O)c1ccccc1-2 [Compound 8, 3-ethoxy-1-phenyl-1H-benzo[g]indazol-4,5-dione] | 3768 nmol of reduced Cytochrome C/min/μg NQO1 protein
CC(C)CCOc1nn(-c2ccccc2)c2c1C(=O)C(=O)c1ccccc1-2 [Compound 12, 3-(isopentyloxy)-1-phenyl-1H-benzo[g]indazol-4,5-dione] | 2981 nmol of reduced Cytochrome C/min/μg NQO1 protein
CCn1c(=O)c2c(n1-c1ccccc1)-c1ccccc1C(=O)C2=O [Compound 7, 2-ethyl-1-phenyl-1H-benzo[g]indazol-3,4,5(2H)-trione] | 2246 nmol of reduced Cytochrome C/min/μg NQO1 protein
CC(C)COc1nn(-c2ccccc2)c2c1C(=O)C(=O)c1ccccc1-2 [Compound 10, 3-isobutoxy-1-phenyl-1H-benzo[g]indazol-4,5-dione] | 3455 nmol of reduced Cytochrome C/min/μg NQO1 protein
CC(C)CCn1c(=O)c2c(n1-c1ccccc1)-c1ccccc1C(=O)C2=O [Compound 11, 2-isopentyl-1-phenyl-1H-benzo[g]indazol-3,4,5(2H)-trione] | 2839 nmol of reduced Cytochrome C/min/μg NQO1 protein
CC(C)n1c(=O)c2c(n1-c1ccccc1)-c1ccccc1C(=O)C2=O [Compound 13, 2-isopropyl-1-phenyl-1H-benzo[g]indazol-3,4,5(2H)-trione] | 2137 nmol of reduced Cytochrome C/min/μg NQO1 protein
COc1nn(-c2ccccc2)c2c1C(=O)C(=O)c1ccccc1-2 [Compound 6, 3-methoxy-1-phenyl-1H-benzo[g]indazol-4,5-dione] | 3782 nmol of reduced Cytochrome C/min/μg NQO1 protein

Same assay, conditions: Table 3; NQO1 2 ng, Compound 0.2 μM; control 74

Structure (SMILES) | NQO1 activity (nmol of reduced Cytochrome C/min/μg NQO1 protein)
COc1nn(-c2ccccc2)c2c1C(=O)C(=O)c1cc(F)ccc1-2 [Compound 22, 7-fluoro-3-methoxy-1-phenyl-1H-benzo[g]indazol-4,5-dione] | 5360 nmol of reduced Cytochrome C/min/μg NQO1 protein
COc1nn(C(C)C)c2c1C(=O)C(=O)c1ccccc1-2 [Compound 17, 1-isopropyl-3-methoxy-1H-benzo[g]indazol-4,5-dione] | 4488 nmol of reduced Cytochrome C/min/μg NQO1 protein
Cn1c2c(c(=O)n1-c1ccccc1)C(=O)C(=O)c1ccccc1-2 [Compound 20, 1-methyl-2-phenyl-1H-benzo[g]indazol-3,4,5(2H)-trione] | 436 nmol of reduced Cytochrome C/min/μg NQO1 protein
COc1nn(-c2ccccc2)c2c1C(=O)C(=O)c1ccccc1-2 [Compound 6, 3-methoxy-1-phenyl-1H-benzo[g]indazol-4,5-dione] | 2905 nmol of reduced Cytochrome C/min/μg NQO1 protein
Cn1c(=O)c2c(n1-c1ccccc1)-c1ccc(F)cc1C(=O)C2=O [Compound 21, 7-fluoro-2-methyl-1-phenyl-1H-benzo[g]indazol-3,4,5(2H)-trione] | 1095 nmol of reduced Cytochrome C/min/μg NQO1 protein

Same assay, conditions: Table 4; NQO1 2 ng, Compound 0.2 μM; control 10

Structure (SMILES) | NQO1 activity (nmol of reduced Cytochrome C/min/μg NQO1 protein)
COc1nn(-c2ccccc2)c2c1C(=O)C(=O)c1cc([N+](=O)[O-])ccc1-2 [Compound 23, 3-methoxy-7-nitro-1-phenyl-1H-benzo[g]indazol-4,5-dione] | 393 nmol of reduced Cytochrome C/min/μg NQO1 protein
COc1nn(-c2ccccc2)c2c1C(=O)C(=O)c1cc(Br)ccc1-2 [Compound 25, 7-bromo-3-methoxy-1-phenyl-1H-benzo[g]indazol-4,5-dione] | 1445 nmol of reduced Cytochrome C/min/μg NQO1 protein
COc1nn(-c2ccccc2)c2c1C(=O)C(=O)c1cc(N)ccc1-2 [Compound 24, 7-amino-3-methoxy-1-phenyl-1H-benzo[g]indazol-4,5-dione] | 3739 nmol of reduced Cytochrome C/min/μg NQO1 protein
COc1nn(-c2ccccc2)c2c1C(=O)C(=O)c1ccccc1-2 [Compound 6, 3-methoxy-1-phenyl-1H-benzo[g]indazol-4,5-dione] | 3261 nmol of reduced Cytochrome C/min/μg NQO1 protein
